# Assay results taken from US20240182531A1, “KV1.3 Blockers” (priority 2021, published 2024).
# Values joined by “and” are separate entries in the source; they are usually repeats but may differ in a detail not shown here. Equal entries are not always repeated. Where two headings read alike, the source gives them in different places. Where a SMILES comes first, the peptide text is derived from it. Bridges are numbered along the chain shown (N, C = ends). [ ]: non-standard residue; d: D form. Nle = CCCC[C@H](N)C(=O)O
# Experiments:
# human Kv1.6 = molecular target: T1, human Kv1.6 (Homo sapiens, UniProt P17658); assay: cell-based; conditions: ratio of patch clamp IC50 values
# T1 construct: expressed in transfected cells; host or cells: CHO
# T1 sequence (P17658 whole entry): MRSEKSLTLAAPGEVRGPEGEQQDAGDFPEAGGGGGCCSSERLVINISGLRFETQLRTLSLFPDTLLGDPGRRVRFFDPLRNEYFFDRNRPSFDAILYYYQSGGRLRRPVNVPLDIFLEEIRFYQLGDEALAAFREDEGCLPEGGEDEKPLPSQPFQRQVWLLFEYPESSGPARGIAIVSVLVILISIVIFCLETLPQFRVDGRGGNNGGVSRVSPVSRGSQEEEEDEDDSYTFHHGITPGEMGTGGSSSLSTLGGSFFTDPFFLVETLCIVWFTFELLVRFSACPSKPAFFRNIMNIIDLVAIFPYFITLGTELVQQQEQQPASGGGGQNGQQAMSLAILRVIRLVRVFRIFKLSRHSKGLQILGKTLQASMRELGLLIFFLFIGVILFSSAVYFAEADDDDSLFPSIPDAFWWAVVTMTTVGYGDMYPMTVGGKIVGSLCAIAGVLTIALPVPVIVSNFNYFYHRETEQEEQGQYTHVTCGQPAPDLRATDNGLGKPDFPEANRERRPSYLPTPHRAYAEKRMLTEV
# human Kv1.2 = molecular target: T2, human Kv1.2 (Homo sapiens, UniProt P16389); assay: cell-based; conditions: ratio of patch clamp IC50 values
# T2 construct: expressed in transfected cells; host or cells: CHO
# T2 sequence (P16389 whole entry): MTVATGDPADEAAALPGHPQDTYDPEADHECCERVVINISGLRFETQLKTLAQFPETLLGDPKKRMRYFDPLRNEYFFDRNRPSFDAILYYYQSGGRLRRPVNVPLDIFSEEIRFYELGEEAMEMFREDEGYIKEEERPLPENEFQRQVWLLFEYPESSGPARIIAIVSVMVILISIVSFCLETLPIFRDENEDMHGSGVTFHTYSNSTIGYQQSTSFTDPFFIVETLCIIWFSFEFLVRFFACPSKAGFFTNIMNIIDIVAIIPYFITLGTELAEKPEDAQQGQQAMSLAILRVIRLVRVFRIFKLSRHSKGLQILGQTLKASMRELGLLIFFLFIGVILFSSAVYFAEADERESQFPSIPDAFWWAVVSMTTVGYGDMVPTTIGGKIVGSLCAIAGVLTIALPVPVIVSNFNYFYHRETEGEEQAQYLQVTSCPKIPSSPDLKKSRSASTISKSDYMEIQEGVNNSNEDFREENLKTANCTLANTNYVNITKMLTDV
# human Kv1.1 = molecular target: T3, human Kv1.1 (Homo sapiens, UniProt Q09470); assay: cell-based; conditions: ratio of patch clamp IC50 values
# T3 construct: expressed in transfected cells; host or cells: CHO
# T3 sequence (Q09470 whole entry): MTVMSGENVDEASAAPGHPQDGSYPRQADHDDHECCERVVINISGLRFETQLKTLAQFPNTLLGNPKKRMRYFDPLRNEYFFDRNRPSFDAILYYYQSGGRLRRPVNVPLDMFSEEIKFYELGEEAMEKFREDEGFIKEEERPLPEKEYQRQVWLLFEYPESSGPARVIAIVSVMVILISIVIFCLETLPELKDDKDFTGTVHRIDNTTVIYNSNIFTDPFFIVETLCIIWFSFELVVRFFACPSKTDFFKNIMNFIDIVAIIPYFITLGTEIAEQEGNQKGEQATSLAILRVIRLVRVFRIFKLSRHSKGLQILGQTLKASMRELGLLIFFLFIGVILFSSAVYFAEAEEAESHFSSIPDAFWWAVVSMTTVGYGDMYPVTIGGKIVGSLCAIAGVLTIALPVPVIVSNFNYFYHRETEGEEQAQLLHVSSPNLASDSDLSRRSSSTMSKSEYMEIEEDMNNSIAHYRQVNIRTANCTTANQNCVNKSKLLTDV
# Rat whole blood = Rat whole blood (Rattus norvegicus, UniProt P15384); type: cell-based; conditions: IL-17A release, thapsigargin, 24 Hr, at least 2 replicates
# Rat whole blood, sequence (P15384 whole entry): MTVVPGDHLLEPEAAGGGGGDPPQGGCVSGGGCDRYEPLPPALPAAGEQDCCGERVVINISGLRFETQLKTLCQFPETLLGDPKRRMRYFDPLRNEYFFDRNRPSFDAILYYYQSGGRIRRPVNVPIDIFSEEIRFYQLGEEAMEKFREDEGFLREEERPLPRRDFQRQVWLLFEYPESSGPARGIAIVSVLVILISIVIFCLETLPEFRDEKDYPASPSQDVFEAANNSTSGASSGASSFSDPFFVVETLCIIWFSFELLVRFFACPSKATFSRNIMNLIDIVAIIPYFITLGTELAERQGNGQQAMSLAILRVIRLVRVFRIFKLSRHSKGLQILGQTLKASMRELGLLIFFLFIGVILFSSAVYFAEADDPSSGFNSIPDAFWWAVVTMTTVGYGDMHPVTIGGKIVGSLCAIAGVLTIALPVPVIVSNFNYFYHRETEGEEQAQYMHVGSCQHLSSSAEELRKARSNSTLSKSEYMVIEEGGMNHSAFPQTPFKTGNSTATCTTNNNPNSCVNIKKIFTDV
# [1] = system: Human peripheral blood mononuclear cells (PBMCs); type: cell-based; conditions: geometric mean, at least 6 replicates, Example 5b; read-out: anti-CD3 PBMC/IL-2 IC50
# Method: Human peripheral blood mononuclear cells (PBMCs) were used to assess the effects of Kv1.3 blocker reference compounds on T-cell activation as determined by IL-2 release after stimulation with anti-CD3.
# Human PBMCs were obtained from Precision for Medicine (Frederick, MD). Cells from 5 donors were used. Plate-bound anti-CD3 was used to stimulate bulk T cells in the PBMC preparations. Briefly, 96-well plates were coated with anti-CD3 antibody for app. 16 hours at 5° C., using 50 μl of a 1 μg/ml anti-CD3 solution diluted in PBS. Thereafter the plates were washed twice.
# Kv1.3 blockers were subsequently diluted in medium (RPMI 1640 with Glutamax-I containing, 10% v/v Fetal Bovine Serum, 1% v/v penicillin-streptomycin Solution) and added in a volume of 50 μl. The compounds indicated in Table 8b were used at concentrations ranging from 0.3 pM to 1000 nM (half log dilutions, starting concentrations varying).
# Finally, 50.000 PBMCs in the same medium were added to each well in a volume of 50 μl, giving a final volume of 100 μl per well. The plates were incubated for 20-24 hours in a 37° C./5% CO2 incubator. After centrifugation of the plates, 25 μl supernatant was transferred to IL-2 detection plates (MSD Human IL-2 Tissue Culture Kit, cat #K151AHB-2) and IL-2 was measures as described by the manufacturer (Meso Scale Discovery, Rockville, Maryland, USA).
# All values derive from at least 6 replicates.
# [2] = system: KLH ear inflammation model in rats; type: in vivo, rat; conditions: +/− SD
# human Kv1.3 = molecular target: T4, human Kv1.3 (Homo sapiens, UniProt P22001); assay: cell-based; conditions: CHO cells, QPatch whole-cell; read-out: Potency IC50 Kv1.3
# T4 construct: expressed in transfected cells; host or cells: CHO
# T4 sequence (P22001 whole entry): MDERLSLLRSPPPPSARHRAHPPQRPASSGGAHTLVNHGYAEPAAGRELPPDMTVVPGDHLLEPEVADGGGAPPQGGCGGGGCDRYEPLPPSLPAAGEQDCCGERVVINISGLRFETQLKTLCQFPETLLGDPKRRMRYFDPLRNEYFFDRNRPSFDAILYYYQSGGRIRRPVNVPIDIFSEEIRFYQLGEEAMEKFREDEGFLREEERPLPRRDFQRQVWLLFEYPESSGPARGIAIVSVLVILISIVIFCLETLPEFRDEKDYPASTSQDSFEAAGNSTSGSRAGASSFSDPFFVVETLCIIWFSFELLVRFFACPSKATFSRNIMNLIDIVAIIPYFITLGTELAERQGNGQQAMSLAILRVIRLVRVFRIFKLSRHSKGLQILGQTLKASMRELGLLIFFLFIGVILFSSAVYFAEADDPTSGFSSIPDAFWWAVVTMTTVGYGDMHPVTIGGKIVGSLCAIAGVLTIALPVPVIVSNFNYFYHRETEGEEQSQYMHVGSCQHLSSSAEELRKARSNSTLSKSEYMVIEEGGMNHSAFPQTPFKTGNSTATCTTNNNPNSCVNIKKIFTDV
# [3] = 50 nmol/kg SC 24 hrs prior to KLH ear challenge
# [4] = 70 nmol/kg SC 24 hrs prior to KLH ear challenge
Compound,Selectivity ratio Kv1.6/Kv1.3 (human Kv1.6),Selectivity ratio Kv1.2/Kv1.3 (human Kv1.2),Selectivity ratio Kv1.1/Kv1.3 (human Kv1.1),IC50 (Rat whole blood),IC50 [1],"% inhibition of ear thickness (AUC of Δ ear thickness 0-48 hours) [2, 3]","% inhibition of ear thickness (AUC of Δ ear thickness 0-48 hours) [2, 4]",IC50 (human Kv1.3),% inhibition of ear thickness (AUC of Δ ear thickness 0-48 hours) ([2]; 100 nmol/kg SC 24 hrs prior to KLH ear challenge)
"CC[C@H](C)[C@@H]1NC(=O)[C@H](C)NC(=O)[C@H](CCCCN)NC(=O)[C@H](CC(C)C)NC(=O)[C@@H]2CSSC[C@@H](C(=O)N[C@@H](Cc3ccc(O)cc3)C(=O)N3CCC[C@H]3C(=O)N[C@@H](CCCNC(=N)N)C(=O)O)NC(=O)[C@H](CCCCN)NC(=O)[C@@H]3CSSC[C@H](NC(=O)[C@H](CCC(=O)O)NC(=O)[C@H](C(C)C)NC(=O)[C@H](CO)NC(=O)[C@H](C)NC(=O)[C@H](CO)NC(=O)[C@@H](NC(=O)[C@H](CCCNC(=N)N)NC(=O)[C@H](CCSC)NC(=O)[C@H](CC(=O)O)NC(=O)[C@H](CCSC)NC(=O)[C@@H](N)CCC(N)=O)CSSC[C@H](NC(=O)[C@H](CCCCN)NC(=O)CNC(=O)[C@H](Cc4ccccc4)NC(=O)[C@H]([C@@H](C)CC)NC(=O)[C@H](CO)NC(=O)CNC1=O)C(=O)N[C@@H](CCSC)C(=O)N[C@@H](CC(N)=O)C(=O)N[C@@H](CCCCN)C(=O)N[C@@H](CCCCN)C(=O)N3)C(=O)N[C@@H](CCCCN)C(=O)N[C@@H](CCC(N)=O)C(=O)N[C@@H](CCCCN)C(=O)N2 [compound 15] (H-QMDMRCSASVECKQKCLKAIGSIFGKCMNKKCKCYPR-OH; disulfide 6-27, 12-32, 16-34)",>7900,1364,>7900,0.17 nM,0.09 nM,,,,
"CC[C@H](C)[C@@H]1NC(=O)[C@H](C)NC(=O)[C@H](CCCCN)NC(=O)[C@H](CC(C)C)NC(=O)[C@@H]2CSSC[C@@H](C(=O)N[C@@H](Cc3ccc(O)cc3)C(=O)N3CCC[C@H]3C(=O)N[C@@H](CCCNC(=N)N)C(=O)O)NC(=O)[C@H](CCCCN)NC(=O)[C@@H]3CSSC[C@H](NC(=O)[C@H](CCC(=O)O)NC(=O)[C@H](C(C)C)NC(=O)[C@H](CO)NC(=O)[C@H](C)NC(=O)[C@H](CO)NC(=O)[C@@H](NC(=O)[C@H](CCCNC(=N)N)NC(=O)[C@H](CCSC)NC(=O)[C@H](CC(=O)O)NC(=O)[C@H](CCSC)NC(=O)[C@@H](N)CC(N)=O)CSSC[C@H](NC(=O)[C@H](CCCCN)NC(=O)CNC(=O)[C@H](Cc4ccccc4)NC(=O)[C@H]([C@@H](C)CC)NC(=O)[C@H](CO)NC(=O)CNC1=O)C(=O)N[C@@H](CCSC)C(=O)N[C@@H](CC(N)=O)C(=O)N[C@@H](CCCCN)C(=O)N[C@@H](CCCCN)C(=O)N3)C(=O)N[C@@H](CCCCN)C(=O)N[C@@H](CCC(N)=O)C(=O)N[C@@H](CCCCN)C(=O)N2 [compound 17] (H-NMDMRCSASVECKQKCLKAIGSIFGKCMNKKCKCYPR-OH; disulfide 6-27, 12-32, 16-34)",>11300,1540,>11300,1 nM,0.06 nM,37.3 (+/−13.8) %,38.8 (+/−9.7) % and 25.0 (+/−12.5) %,,
"CC[C@H](C)[C@@H]1NC(=O)[C@H](C)NC(=O)[C@H](CCCCN)NC(=O)[C@H](CC(C)C)NC(=O)[C@@H]2CSSC[C@@H](C(=O)N[C@@H](Cc3ccc(O)cc3)C(=O)N3CCC[C@H]3C(=O)N[C@@H](CCCNC(=N)N)C(N)=O)NC(=O)[C@H](CCCCN)NC(=O)[C@@H]3CSSC[C@H](NC(=O)[C@H](CCC(=O)O)NC(=O)[C@H](C(C)C)NC(=O)[C@H](CO)NC(=O)[C@H](C)NC(=O)[C@H](CCCCN)NC(=O)[C@@H](NC(=O)[C@H](CCCNC(=N)N)NC(=O)[C@H](CCSC)NC(=O)[C@H](CC(=O)O)NC(=O)[C@H](CCSC)NC(=O)[C@@H](N)CC(N)=O)CSSC[C@H](NC(=O)[C@H](CCCCN)NC(=O)CNC(=O)[C@H](Cc4ccccc4)NC(=O)[C@H]([C@@H](C)CC)NC(=O)[C@H](CO)NC(=O)CNC1=O)C(=O)N[C@@H](CCSC)C(=O)N[C@@H](CC(N)=O)C(=O)N[C@@H](CCCCN)C(=O)N[C@@H](CCCCN)C(=O)N3)C(=O)N[C@@H](CCCCN)C(=O)N[C@@H](CCC(N)=O)C(=O)N[C@@H](CCCCN)C(=O)N2 [compound 29] (H-NMDMRCKASVECKQKCLKAIGSIFGKCMNKKCKCYPR-NH2; disulfide 6-27, 12-32, 16-34)",4144,761,>34200,,,,,0.09 nM,
"CCCC[C@H](NC(=O)[C@@H]1CCCN1)C(=O)N[C@@H](CC(=O)O)C(=O)N[C@@H](CCCC)C(=O)N[C@@H](CCCNC(=N)N)C(=O)N[C@H]1CSSC[C@@H]2NC(=O)[C@H](CCCCN)NC(=O)CNC(=O)[C@H](Cc3ccccc3)NC(=O)[C@H]([C@@H](C)CC)NC(=O)[C@H](CO)NC(=O)CNC(=O)[C@H]([C@@H](C)CC)NC(=O)[C@H](C)NC(=O)[C@H](CCCCN)NC(=O)[C@H](CC(C)C)NC(=O)[C@@H]3CSSC[C@@H](C(=O)N[C@@H](Cc4ccc(O)cc4)C(=O)N4CCC[C@H]4C(=O)N[C@@H](CCCNC(=N)N)C(N)=O)NC(=O)[C@H](CCCCN)NC(=O)[C@H](CSSC[C@H](NC(=O)[C@H](CCC(=O)O)NC(=O)[C@H](C(C)C)NC(=O)[C@H](CO)NC(=O)[C@H](C)NC(=O)[C@H](CO)NC1=O)C(=O)N[C@@H](CCCCN)C(=O)N[C@@H](CCC(N)=O)C(=O)N[C@@H](CCCCN)C(=O)N3)NC(=O)[C@H](CCCCN)NC(=O)[C@H](CCCCN)NC(=O)[C@H](CC(N)=O)NC(=O)[C@H](CCCC)NC2=O [compound 45] (H-P[Nle]D[Nle]RCSASVECKQKCLKAIGSIFGKC[Nle]NKKCKCYPR-NH2; disulfide 6-27, 12-32, 16-34)",>17100,5362,>17100,0.98 nM,0.03 nM,22.2 (+/−11.1) %,46.9 (+/−10.9) % and 27.7 (+/−11.5) %,,41.9 (+/−12.5) %
"CCCC[C@@H]1NC(=O)[C@@H]2CSSC[C@H](NC(=O)[C@H](CCCNC(=N)N)NC(=O)[C@H](CCCC)NC(=O)[C@H](CC(=O)O)NC(=O)[C@H](CCCC)NC(=O)[C@@H](N)CC(N)=O)C(=O)N[C@@H](CO)C(=O)N[C@@H](C)C(=O)N[C@@H](CO)C(=O)N[C@@H](C(C)C)C(=O)N[C@@H](CCC(=O)O)C(=O)N[C@H]3CSSC[C@H](NC(=O)[C@H](CCCCN)NC(=O)[C@H](CCCCN)NC(=O)[C@H](CC(N)=O)NC1=O)C(=O)N[C@@H](CCCCN)C(=O)N[C@H](C(=O)N[C@@H](Cc1ccc(O)cc1)C(=O)N1CCC[C@H]1C(=O)N[C@@H](CCCNC(=N)N)C(N)=O)CSSC[C@H](NC(=O)[C@H](CO)NC(=O)[C@H](CCC(N)=O)NC(=O)[C@H](CCCCN)NC3=O)C(=O)N[C@@H](CC(C)C)C(=O)N[C@@H](CCCCN)C(=O)N[C@@H](C)C(=O)N[C@@H]([C@@H](C)CC)C(=O)NCC(=O)N[C@@H](CO)C(=O)N[C@@H]([C@@H](C)CC)C(=O)N[C@@H](Cc1ccccc1)C(=O)NCC(=O)N[C@@H](CCCCN)C(=O)N2 [compound 52] (H-N[Nle]D[Nle]RCSASVECKQSCLKAIGSIFGKC[Nle]NKKCKCYPR-NH2; disulfide 6-27, 12-32, 16-34)",>8200,>8200,>8200,0.63 nM,0.07 nM,,,,
"CCCC[C@H](NC(=O)[C@H](CC(=O)O)NC(=O)[C@H](CCCC)NC(=O)[C@@H](N)CO)C(=O)N[C@@H](CCCNC(=N)N)C(=O)N[C@H]1CSSC[C@@H]2NC(=O)[C@H](CCCCN)NC(=O)CNC(=O)[C@H](Cc3ccccc3)NC(=O)[C@H]([C@@H](C)CC)NC(=O)[C@H](CO)NC(=O)CNC(=O)[C@H]([C@@H](C)CC)NC(=O)[C@H](C)NC(=O)[C@H](CCCCN)NC(=O)[C@H](CC(C)C)NC(=O)[C@@H]3CSSC[C@@H](C(=O)N[C@@H](Cc4ccc(O)cc4)C(=O)N4CCC[C@H]4C(=O)N[C@@H](CCCNC(=N)N)C(N)=O)NC(=O)[C@H](CCCNC(=N)N)NC(=O)[C@H](CSSC[C@H](NC(=O)[C@H](CCC(=O)O)NC(=O)[C@H](C(C)C)NC(=O)[C@H](CO)NC(=O)[C@H](C)NC(=O)[C@H](CO)NC1=O)C(=O)N[C@@H](CCCCN)C(=O)N[C@@H](CCC(N)=O)C(=O)N[C@@H](CCCCN)C(=O)N3)NC(=O)[C@H](CCCCN)NC(=O)[C@H](CCCCN)NC(=O)[C@H](CC(N)=O)NC(=O)[C@H](CCSC)NC2=O [compound 75] (H-S[Nle]D[Nle]RCSASVECKQKCLKAIGSIFGKCMNKKCRCYPR-NH2; disulfide 6-27, 12-32, 16-34)",,,,0.86 nM,,,,0.13 nM,
"H-NMDMRCSASVECKQKCLKAIGSIFGKCMNKKCKCYPRRRTA-NH2 (disulfide 6-27, 12-32, 16-34) [compound 28]",1472,191,4280,0.57 nM,0.06 nM,,,,
